“And” between values parts separate entries of the source, which are not always exact repeats. Equal entries are not always repeated. “Also recorded” adds a separate entry of the source. Where two headings read alike, the source gives them in different places.
Columns and labels:
[1] = system: patients with relapsed/refractory AML or MDS; set-up: method as in PMID 25733005; details: cited from earlier work; for MTD: single-agent
[2] = system: NAE-regulated transcriptional targets (ATF3, GCLM, GSR, MAG1, NQ01, SLC7A11, SRXN1, and TXNRD1); assay: RT-PCR of NAE-regulated transcripts in whole blood; format: in vivo, human
Procedure: Blood samples for PD analysis were collected during Cycle 1. […] On schedule B samples were collected: at screening; on Day 1 within 1 h before dosing and 1, 2, 4, and 8 h after completion of infusion; on Day 8 within 1 h before dosing; and on Day 15 within 1 h before dosing and 1, 2, and 4 h after completion of infusion. Gene expression of NAE-regulated transcriptional targets (ATF3, GCLM, GSR, MAG1, NQ01, SLC7A11, SRXN1, and TXNRD1) in whole blood was analyzed by reverse-transcription polymerase chain reaction (RT-PCR). Raw data were transformed prior to calculation of percent change and assumptions were made for missing data, as previously described. Summary statistics were generated for the percent change from baseline at each time point for each gene.

[3] = system: patients with solid tumors; set-up: method as in PMID 26423795; details: cited from earlier work
[4] = system: pevonedistat–NEDD8 adduct, Cdt1 and Nrf-2; assay: Immunohistochemistry of paired tumor biopsies; format: in vivo, human
Procedure: For patients in the MTD expansion cohort, paired tumor biopsies were obtained at screening and at 3–6 h post-dosing on Day 4 (schedule A) or Day 8 (schedule B). […] Immunohistochemical analyses were performed at Millennium Pharmaceuticals, Inc. as previously described.

[5] = system: patients with metastatic melanoma; assay: Antitumor activity, response by modified RECIST v1.1; format: in vivo, human
Procedure: (§1) Adverse events (AEs) were graded using the National Cancer Institute’s Common Terminology Criteria for AEs version 3.0. Response was assessed using the modified RECIST guideline (v1.1). Computed tomography or magnetic resonance imaging scans were performed at screening, at the end of Cycle 2, and then every other cycle.

[6] = system: patients with multiple myeloma or lymphoma; set-up: method as in PMID 26561559; details: cited from earlier work
clinical = details: human, in vivo
Procedure: (§3) Blood samples (3 mL) for PK analysis were collected during Cycle 1. On schedule A, serial samples were collected within 1 h before dosing on Day 1, immediately after completion of infusion (immediately before switching off infusion pump), and at 1, 4, and 7 h after completion of infusion. Samples were also collected on Days 2 and 3; on Days 4 and 8 (immediately before dosing and immediately after completion of infusion); on Day 11 immediately before dosing, immediately after completion of infusion, and at 4 and 7 h after completion of infusion; and on Day 15. On schedule B, blood samples were collected within 1 h before dosing on Day 1, immediately after completion of infusion (immediately before switching off infusion pump), and at 1, 2, 4, and 7 h after completion of infusion. Samples were also collected on Days 2, 3, and 4; and on Days 8 and 15 (immediately before dosing and immediately after completion of infusion). Samples were analyzed at Tandem Labs (West Trenton, NJ) for pevonedistat plasma concentrations using Good Laboratory Practice-validated liquid chromatography/tandem mass spectrometry methods. The dynamic ranges were 1–500 ng/mL for the low-range assay and 75–7500 ng/mL for the high-range assay.
(§4) The PK-evaluable population included all patients who received all protocol-defined doses in Cycle 1, had sufficient plasma concentration–time data to reliably estimate PK parameters, and had not received any excluded concomitant medications per protocol. Individual pevonedistat plasma concentration–time data were analyzed by noncompartmental methods using WinNonlin software (Version 6.2, Pharsight Corporation, Cary, NC). Plasma concentrations below the lower limit of quantification were set to zero for analysis.

NAE = system: NAE; set-up: method as in PMID 21779466, PMID 15688063, PMID 19360080, PMID 23416079, PMID 24853380; details: NAE inhibition; cited from earlier work
[7] = system: patients with metastatic melanoma; assay: Dose escalation: DLTs and MTD determination (Bayesian continual reassessment method); format: in vivo; details: schedule A (Days 1, 4, 8, and 11 of 21-day cycles), 1 h intravenous infusion
Procedure: (§2) Patients received pevonedistat as 1 h intravenous infusions either on Days 1, 4, 8, and 11 (schedule A) or on Days 1, 8, and 15 (schedule B, weekly dosing) of 21-day cycles. For schedule A, intermittent dosing on Days 1, 4, 8, and 11 was chosen to match the twice-weekly schedule of the proteasome inhibitor bortezomib. The starting dose of 50 mg/m^2 was selected based on the toxicities and the MTD observed in another phase I study that investigated pevonedistat administration on Days 1–5 of 21-day cycles in patients with advanced solid tumors. It was hypothesized that intermittent dosing – extending the dose over a 2-week period – would be better tolerated than the continuous dosing schedule, which was associated with severe hepatotoxicity. Schedule B, which was added subsequently through a protocol amendment, was based on the rationale that weekly bortezomib has similar efficacy and is more convenient than the twice-weekly schedule. […] Patients could receive pevonedistat until disease progression or unacceptable drug-related toxicity, up to a maximum of 12 months.
Dose escalation proceeded via a Bayesian continual reassessment method using 2-patient cohorts and 1.33-fold dose increments over the previous dose level. Dose escalation decisions were based on occurrence of DLTs in Cycle 1 and the predicted MTD from the continual reassessment model (Supplementary Fig. S1). […]

[8] = system: treatment-naïve elderly patients with AML; set-up: method as in earlier work; details: in combination with azacitidine, Days 1, 3, and 5 schedule; cited from earlier work
[9] = Plasma pharmacokinetics (LC/MS/MS, noncompartmental analysis); details: for Dose proportionality of plasma exposure: 50–278 mg/m^2, after Day 1 intravenous infusion; for Disposition profile following completion of the intravenous infusion: schedules A and B
Procedure: as §3, §4

[10] = system: patients with metastatic melanoma; assay: Adverse events (NCI CTCAE v3.0) in the phase I study, safety population; format: in vivo
Procedure: as §2, §1

[11] = Cycle 1, Day 1, 7 h post-dose, Schedule A MTD, 209 mg/m^2 (n=11)
[12] = Cycle 1, Day 1, 8 h post-dose, Schedule B, 157 mg/m^2 (n=8)
[13] = nine melanoma patients in the first-in-human phase I study
[14] = the patient with partial response, 209 mg/m^2 schedule A
[15] = human, plasma, intravenous, 157 mg/m^2

## NS(=O)(=O)OC[C@@H]1C[C@@H](n2ccc3c(N[C@H]4CCc5ccccc54)ncnc32)C[C@@H]1O [pevonedistat, Pevonedistat]
[1]
  DLTs: multi-organ failure, reversible ALT elevation, AST/ALT elevation, cardiac failure, and acute renal failure
[1]; Days 1, 3, and 5 of 21-day cycles
  MTD: 50/59
[1]; Days 1, 4, 8, and 11 schedule
  MTD: 83 mg/m^2
[2]; [11]
  ATF3 transcript, median % change from baseline (range): 88.6 (–38.6 to 385.0) %
  GCLM transcript, median % change from baseline (range): 105.3 (–33.0 to 234.2) %
  GSR transcript, median % change from baseline (range): 196.6 (–54.2 to 447.6) %
  MAG1 transcript, median % change from baseline (range): 99.1 (–22.4 to 236.4) %
  NQ01 transcript, median % change from baseline (range): 681.2 (–49.7 to 2740.6) %
  SLC7A11 transcript, median % change from baseline (range): 837.0 (–65.3 to 3873.9) %
  SRXN1 transcript, median % change from baseline (range): 142.0 (–50.5 to 340.0) %
  TXNRD1 transcript, median % change from baseline (range): 220.7 (–41.7 to 347.7) %
[2]; [12]
  ATF3 transcript, median % change from baseline (range): 260 (30.8 to 541.4) %
  GCLM transcript, median % change from baseline (range): 65.4 (20.0–108.0) %
  GSR transcript, median % change from baseline (range): 176.2 (93.2–216.6) %
  MAG1 transcript, median % change from baseline (range): 81.7 ( 39.0–158.2) %
  NQ01 transcript, median % change from baseline (range): 833.8 (330.6–2202.3) %
  SLC7A11 transcript, median % change from baseline (range): 727.4 (184.7 to 1660.0) %
  SRXN1 transcript, median % change from baseline (range): 81.5 (43.3 to 185.3) %
  TXNRD1 transcript, median % change from baseline (range): 156.9 (87.8 to 234.9) %
[2]; MTD on schedule A and schedule B
  Change of all eight NAE-regulated gene transcripts post-treatment: increases in NAE-regulated transcripts post-treatment; also recorded: significantly increased
[2]; data not shown
  Doses at which induction of all NAE-regulated transcriptional targets was observed: ≥ 50 mg/m^2
[3]; Days 1–5 and Days 1, 3, and 5 schedules
  MTD: 50–67 mg/m^2
[3]
  DLTs: ALT elevation, AST elevation, and hyperbilirubinemia
[3]; [13]
  Duration of stable disease in another patient: 6 months
  Patients achieving a partial response: one
[4]; 3–6 h after Cycle 1, Day 4 dose, 3 patients, Schedule A MTD expansion cohort
  pevonedistat–NEDD8 adduct in post-dose tumor biopsy samples: positive
[4]; one patient with adequate biopsy tissue, schedule A MTD
  Immunohistochemical expression of Cdt1 and Nrf-2 in tumor: increased post-treatment
[5]; 31 response-evaluable patients
  Best response: progressive disease: 15 (48 %) patients
[5]; 31 response-evaluable patients, schedule A and B
  Best response: stable disease: 15 patients and 15 (48 %) patients
[5]; among the 15 patients who achieved stable disease
  Patients with stable disease lasting 6.5 months or longer: 4 patients
[5]; [14]
  Duration of response: 1.55 months
  Overall duration of stable disease or better: 4.4 months
[6]; Day 1, 2, 8, and 9 schedule
  MTD: 110 mg/m^2
[6]; Days 1, 4, 8, and 11 of 21-day cycles
  MTD: 196 mg/m^2
[6]
  DLTs: febrile neutropenia, AST elevation, muscle cramps, and thrombocytopenia
clinical
  Tmax: 1 h
  clearance: 635 mL/min
  half-life: 10.4 h
NAE
  Fraction of the proteins regulated by the UPS whose proteasomal degradation is prevented: ~ 20%
[7]
  Maximum tolerated dose (MTD): 209 mg/m^2
[8]
  MTD: 20 mg/m^2
[9]
  Dose proportionality of plasma exposure: increased approximately proportionally with dose
  Disposition profile following completion of the intravenous infusion: biphasic disposition phase
[9]; listed as Pevonedistat
  Dose proportionality of plasma exposure: approximately dose-proportional
  Disposition profile following completion of the intravenous infusion: biphasic disposition profile
[9]; [15]
  AUC(0-inf): 8.93 µg·h/mL
  AUC(0-t): 7.25 µg·h/mL
  Cmax: 2.45 µg/mL
  Tmax: 1 h
  clearance: 647 mL/min
  half-life: 10.1 h
[9]; human, plasma, iv
  half-life: ~10 h
[10]; Schedule A (n = 26)
  On-study death: 2 (8) n (%)
[10]; Schedule B (n = 11)
  On-study death: 1 (9) n (%)
[10]; human, in vivo
  Severity of peripheral neuropathy: mild (grade 1)
[10]; in vivo
  Patients who experienced acute organ failure toxicities: Two
[10]; schedule A, 209 mg/m^2
  Tolerability at the MTD: generally well tolerated
[10]; schedule A, 209 mg/m^2, one patient after one dose, Day 9 of Cycle 1
  Drug-related death: grade 5 acute renal failure; also recorded: died due to drug-related acute renal failure

From publication PMC4919369, “A phase I study of the investigational NEDD8-activating enzyme inhibitor pevonedistat (TAK-924/MLN4924) in patients with metastatic melanoma” (Investigational New Drugs, 2016)
